Eight molecules from patent publication US20230183333A1, “COMPOSITION FOR THE TREATMENT OF PHILADELPHIA CHROMOSOME-POSITIVE ACUTE LYMPHOBLASTIC LEUKEMIA” (priority 2020, published 2023) can be followed below.

Sequences and labels used below:
T1: human interleukin 7 receptor (IL7R) on SUP-B15 Ph+ BCP-ALL cells (human, UniProt P16871 21-459)
T1 construct: whole, on cells; In the immunoprecipitation it comes from SUP-B15 lysate; also called IL7Rα; human IL7Rα
T1 sequence (looked up): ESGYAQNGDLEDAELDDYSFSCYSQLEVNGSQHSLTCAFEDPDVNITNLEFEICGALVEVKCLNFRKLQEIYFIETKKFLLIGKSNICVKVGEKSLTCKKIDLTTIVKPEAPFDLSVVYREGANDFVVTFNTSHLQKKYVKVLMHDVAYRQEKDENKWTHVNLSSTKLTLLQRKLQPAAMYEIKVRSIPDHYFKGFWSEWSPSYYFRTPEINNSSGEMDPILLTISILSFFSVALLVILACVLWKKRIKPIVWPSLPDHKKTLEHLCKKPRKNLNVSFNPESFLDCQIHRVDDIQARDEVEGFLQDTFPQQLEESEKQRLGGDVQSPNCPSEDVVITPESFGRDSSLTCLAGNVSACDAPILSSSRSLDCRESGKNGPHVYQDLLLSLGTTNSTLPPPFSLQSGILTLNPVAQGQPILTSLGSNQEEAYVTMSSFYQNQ

T2: mouse Jak3 in pre-B cells (mouse, UniProt Q62137 1-1100)
T2 construct: Detected in cells by PLA with an antibody from Cell Signaling
T2 sequence (looked up): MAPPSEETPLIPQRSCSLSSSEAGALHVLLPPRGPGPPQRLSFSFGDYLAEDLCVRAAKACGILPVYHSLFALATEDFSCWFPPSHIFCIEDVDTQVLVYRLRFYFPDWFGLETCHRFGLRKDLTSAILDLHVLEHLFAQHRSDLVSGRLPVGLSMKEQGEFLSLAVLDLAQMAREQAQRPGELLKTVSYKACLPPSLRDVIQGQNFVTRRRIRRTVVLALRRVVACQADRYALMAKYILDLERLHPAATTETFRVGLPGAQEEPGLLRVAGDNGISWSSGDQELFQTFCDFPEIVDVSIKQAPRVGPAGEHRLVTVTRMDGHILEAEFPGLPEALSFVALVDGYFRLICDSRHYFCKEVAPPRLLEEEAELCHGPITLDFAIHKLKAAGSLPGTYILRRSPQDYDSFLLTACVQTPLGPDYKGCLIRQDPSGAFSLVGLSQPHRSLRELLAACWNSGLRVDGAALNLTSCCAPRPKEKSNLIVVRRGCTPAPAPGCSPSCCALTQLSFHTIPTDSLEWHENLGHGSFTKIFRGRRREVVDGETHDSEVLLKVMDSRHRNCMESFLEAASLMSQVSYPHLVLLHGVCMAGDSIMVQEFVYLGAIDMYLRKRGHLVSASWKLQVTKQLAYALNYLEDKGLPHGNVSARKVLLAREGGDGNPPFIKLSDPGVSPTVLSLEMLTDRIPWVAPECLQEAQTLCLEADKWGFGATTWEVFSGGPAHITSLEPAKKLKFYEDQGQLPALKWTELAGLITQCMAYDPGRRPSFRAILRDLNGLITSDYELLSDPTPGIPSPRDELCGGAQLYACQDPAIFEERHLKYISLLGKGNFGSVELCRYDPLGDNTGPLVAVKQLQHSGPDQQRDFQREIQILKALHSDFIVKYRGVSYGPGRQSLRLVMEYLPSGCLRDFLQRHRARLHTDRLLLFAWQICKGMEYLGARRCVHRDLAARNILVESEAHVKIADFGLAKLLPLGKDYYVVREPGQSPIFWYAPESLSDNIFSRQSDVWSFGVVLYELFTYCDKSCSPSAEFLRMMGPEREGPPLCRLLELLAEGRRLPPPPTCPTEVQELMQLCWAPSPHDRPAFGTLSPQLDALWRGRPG

B1: IL7: cytokine that binds IL7Rα chain (protein)
chain: DCDIEGKDGKQYESVLMVSIDQLLDSMKEIGSNCLNNEFNFFKRHICDANKEGMFLFRAARKLRQFLKMNSTGDFDLHLLKVSEGTTILLNCTGQVKGRKPAALGEAQPTKSLEENKSLKEQKKLNDLCFLKRLLQEIKTCWNKILMGTKEH
B2: human CXCR4 on SUP-B15 cells (receptor, UniProt P61073 1-352, looked up)
chain: MEGISIYTSDNYTEEMGSGDYDSMKEPCFREENANFNKIFLPTIYSIIFLTGIVGNGLVILVMGYQKKLRSMTDKYRLHLSVADLLFVITLPFWAVDAVANWYFGNFLCKAVHVIYTVNLYSSVLILAFISLDRYLAIVHATNSQRPRKLLAEKVVYVGVWIPALLLTIPDFIFANVSEADDRYICDRFYPNDLWVVVFQFQHIMVGLILPGIVILSCYCIIISKLSHSKGHQKRKALKTTVILILAFFACWLPYYIGISIDSFILLEIIKQGCEFENTVHKWISITEALAFFHCCLNPILYAFLGAKFKTSAQHALTSVSRGSSLKILSKGKRGGHSSVSTESESSSFHSS
notes: whole, on cells; In the immunoprecipitation it comes from SUP-B15 lysate; also called C-X-C chemokine receptor 4
B3: mouse CXCR4 on bone marrow-derived pre-B cells (WT or BCR-ABL1 transformed) (receptor, UniProt P70658 1-359, looked up)
chain: MEPISVSIYTSDNYSEEVGSGDYDSNKEPCFRDENVHFNRIFLPTIYFIIFLTGIVGNGLVILVMGYQKKLRSMTDKYRLHLSVADLLFVITLPFWAVDAMADWYFGKFLCKAVHIIYTVNLYSSVLILAFISLDRYLAIVHATNSQRPRKLLAEKAVYVGVWIPALLLTIPDFIFADVSQGDISQGDDRYICDRLYPDSLWMVVFQFQHIMVGLILPGIVILSCYCIIISKLSHSKGHQKRKALKTTVILILAFFACWLPYYVGISIDSFILLGVIKQGCDFESIVHKWISITEALAFFHCCLNPILYAFLGAKFKSSAQHALNSMSRGSSLKILSKGKRGGHSSVSTESESSSFHSS
notes: whole, on cells
B4: mouse IL7R on bone marrow-derived pre-B cells (WT or BCR-ABL1 transformed) (receptor, UniProt P16872 21-459, looked up)
chain: ESGNAQDGDLEDADADDHSFWCHSQLEVDGSQHLLTCAFNDSDINTANLEFQICGALLRVKCLTLNKLQDIYFIKTSEFLLIGSSNICVKLGQKNLTCKNMAINTIVKAEAPSDLKVVYRKEANDFLVTFNAPHLKKKYLKKVKHDVAYRPARGESNWTHVSLFHTRTTIPQRKLRPKAMYEIKVRSIPHNDYFKGFWSEWSPSSTFETPEPKNQGGWDPVLPSVTILSLFSVFLLVILAHVLWKKRIKPVVWPSLPDHKKTLEQLCKKPKTSLNVSFNPESFLDCQIHEVKGVEARDEVESFLPNDLPAQPEELETQGHRAAVHSANRSPETSVSPPETVRRESPLRCLARNLSTCNAPPLLSSRSPDYRDGDRNRPPVYQDLLPNSGNTNVPVPVPQPLPFQSGILIPVSQRQPISTSSVLNQEEAYVTMSSFYQNK
notes: whole, on cells; also called IL7Rα

In test [1] the test system is BCR-ABL1 transformed cells. The test is described as follows: Imatinib-induced cell death in the presence of cytokine/chemokine (viability, cell cycle). Format: cell-based, mouse. The following applies: added together with 1 μM imatinib.
Procedure: BM cells from WT (n=7, female), IL7Rα^Δ (n=7, female), IL7Rα^fl/fl (n=7, female), CXCR4^fl/fl (n=3, female) and FoxO1^fl/fl (n=3, female) mice were collected and retrovirally transformed with either an empty pMIG vector or with a pMIG vector expressing BCR-ABL1. Unless mentioned otherwise, cells were cultured for 3 to 7 days in Iscove's medium (Biochrom AG) containing 10% heat-inactivated FCS (Sigma-Aldrich), 2 mM 1-glutamine, 100 U/ml penicillin (Gibco), 100 U/ml streptomycin (Gibco), and 50 μM 2-mercaptoethanol. The medium was supplemented in excess with the supernatant of J558L plasmacytoma cells stably transfected with a vector encoding murine IL7. Transformed cells were selected by IL7 withdrawal and kept in optimum conditions^38. Retroviral vectors containing either constitutively active STAT5 (STAT5-CA)^34 or an empty vector were used to transduce BCR-ABL1-transformed cells and sorted cells were used then for western blot or flow cytometry analysis. 1-2μM 4-hydroxy tamoxifen (Tam) (Sigma-Aldrich) was used to induce deletion on plasmids expressing tamoxifen-inducible form of Cre (Cre-ER^T2)^14. All cells were tested and found free from mycoplasma.
Antibodies for flow cytometry (CD19, IL7R, CXCR4, FoxO1 and CD11b) were purchased from (eBiosciences, BioLegend, Invitrogen or Cell Signaling). Intracellular flow cytometry staining was performed using Fix and Perm cell permeabilization kit (ADG). Cell viability was measured using Sytox® blue dead cell stain (Life Technologies). FACS Cantoll (BD Biosciences) was used for flow cytometry, and FlowJo v.10.1 was used for data analysis.
The test system of test [2] is human Ph+ ALL SUP-B15 cell line. The test can be described thus: IL7R and CXCR4 surface expression after imatinib in a human Ph+ ALL cell line. Format: cell-based. Particulars: 5 μM imatinib, day 7, surface expression. Here is the method:
68 BCR-ABL+ ALL patients were treated according to European intergroup study of post-induction treatment of Philadelphia-chromosome-positive ALL (EsPhALL) 2004 and 2010 protocols (NCT00287105) and ALL-Berlin-Frankfurt-Münster (BFM) 2000 (NCT00430118) study. Informed consent was obtained according to institutional regulations, in accordance with the Declaration of Helsinki. 697, SUP-B15, and TOM-1 cell lines were obtained from DSMZ. Ph+ ALL cells containing T3151 mutation was kindly provided by M. Miischen (Shojaee, S., et al. Nat Med 22, 379-387 (2016)).

The test system of test [3] is BCR-ABL1 transformed cells. The test is described as follows: CXCL12-induced Ca2+ flux. Type of test: cell-based, mouse. The following applies: CXCL12 100 ng/ml. As for the experimental part:
A total of 1×10^6 cells were loaded with Indo-1 AM (Invitrogen) and used for Ca^2+ analyses^62. 100 ng/m1 of CXCL12 was used for stimulation

The target in test [4] is T1, human interleukin 7 receptor (IL7R) on …. The test is described as follows: Fab-PLA on SUP-B15 cells in comparison to Ramos cells.
In test [5] the target is B4. The test can be described thus: proximity ligation assay on mouse pre-B cells.
For test [6], the target named is T2, mouse Jak3 in pre-B cells. The test can be described thus: proximity ligation assay on mouse BCR-ABL1 transformed pre-B cells.
Test [7] concerns the target T2, mouse Jak3 in pre-B cells. The test is described as follows: proximity ligation assay on mouse WT and BCR-ABL1 transformed pre-B cells.

Regarding TSLP: the ligand for CRLF2, the “effect on imatinib-induced cell death” value in test [1] is recorded as “unable to rescue BCR-ABL1 transformed cells from inhibitor-induced cell death”.
On to `Cc1ccc(NC(=O)c2ccc(CN3CCN(C)CC3)cc2)cc1Nc1nccc(-c2cccnc2)n1` [imatinib], for which the “expression of IL7R and CXCR4” value in test [2] is “upregulated IL7R and CXCR4”.
For the molecule `c1cc(CN2CCCNCCNCCCNCC2)ccc1CN1CCCNCCNCCCNCC1` [AMD3100], the “effect on imatinib-induced cell death” value in test [1] is reported as “did not affect imatinib treatment”. Further, the “CXCL12-induced Ca2+ response” value in test [3] was “prevented the Ca^2+ response”.
As to CXCL12: chemokine, the ligand for CXCR4, in test [1], the “effect on imatinib-induced cell death” value is recorded as “did not affect imatinib treatment”.
Same read-out and setting: the value for B1 was “counteracted imatinib-induced cell death and restored the cell cycle progression”.
Turning to B2, in test [4], the binding result was “binds”.
For B3, the binding result in test [5] and in test [6] was “binds” each time.
Take B4: the binding result in test [7] was “binds”.
